{"source": "patent US9957273B2", "about": "“5-substituted 7- [4-(2-pyridyl)phenylmethylamino] -3-isopropylpyrazolo4,3-D]pyrimidine derivatives, use thereof as medicaments, and pharmaceutical compositions” (USTAV EXPERIMENTALNI BOTANIKY AV CR, V.V.I., priority 2015, dated 2018)", "type_in_all_cases": "cell-based", "key": {"[1]": {"system": "caspases 3 and 7 in HCT116 cells", "assay": "Caspase-3/7 activity assay in HCT116 cells", "details": "24 h, FIG. 3", "procedure": "Measurement of proapoptotic properties of new compounds was based on quantification of enzymatic activities of caspases-3/7. Activity of cellular caspase-3/7 was measured according to Carrasco et al., 2003, BioTechniques, 34(5): 1064-67. Briefly, the cells were incubated in a 96-well plate overnight. Next day, the compounds in appropriate concentrations were added and cells were incubated for 24 hours. After incubation, 3× caspase-3/7 assay buffer (150 mM HEPES pH 7.4, 450 mM NaCl, 150 mM KCl, 30 mM MgCl2, 1.2 mM EGTA, 1.5% Nonidet P40, 0.3% CHAPS, 30% sucrose, 30 mM DTT, 3 mM PMSF) with 150 μM Ac-DEVD-AMC as a substrate (Sigma-Aldrich) was added to the wells and plates were incubated at 37° C. […]. The caspase activity was measured using Fluoroskan Ascent microplate reader (Labsystems) at 346 nm/442 nm (excitation/emission)."}, "HCT116 (colon carcinoma)": {"system": "HCT116 (colon carcinoma)", "assay": "MTT cytotoxicity assay, solid cancer cell line HCT116", "details": "Homo sapiens, HCT-116, 72 h, three days", "outline": "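Each line grown in DMEM with FBS and L-glutamine; 4000-10000 cells/well allowed to settle ≥16 h, then given compound at 100 to 0.01 μM in triplicate for three days. MTT added, medium replaced with DMSO after five hours, absorbance read at 620 nm. Untreated cells served as reference; each assay repeated 3 times.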"}, "[2]": {"system": "HL60 (human promyelocytic leukaemia)", "assay": "MTT cytotoxicity assay, leukemic cell line HL60", "details": "Homo sapiens, HL-60, 72 h, three days", "outline": "(§1)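 Cells in RPMI with FBS and L-glutamine at 37 °C, 5% CO2, seeded 2000-5000/well, stabilized ≥8 h, then exposed to compounds at 100 to 0.01 μM in triplicate for three days. MTT added, formazan dissolved in DMSO after five hours and read at 620 nm against untreated cells; three repeats.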"}, "p53": {"system": "p53", "assay": "Immunoblotting of apoptotic markers in HCT116 cells: p53", "details": "24 hours, FIG. 4", "procedure": "(§2) Effect of novel compounds on apoptosis was confirmed by immunoblotting analysis of selected apoptotic proteins. For immunoblotting, cell were harvested, washed three times with ice-cold PBS and lysed in a buffer (50 mM Tris, pH 7.4, 250 mM NaCl, 5 mM EDTA, 50 mM NaF, 1 mM Na3VO4, 1% Nonidet P40) containing mixture of protease and phosphatase inhibitors (Sigma-Aldrich). 20 μg of total proteins were separated by SDS-polyacrylamide gel electrophoresis (SDS-PAGE) and transferred onto nitrocellulose membranes. Membranes were blocked in 5% milk and 0.1% Tween 20 in PBS and probed overnight with specific antibodies. Specific antibodies were purchased from SigmaAldrich (anti a-tubulin, clone DM1A), Santa Cruz Biotechnology (anti-Mcl-1, clone S-19; anti-PARP, clone F-2; anti-Mdm-2, clone SMP14; anti-Bcl-2), DAKO Cytomation Cell Signaling (anti-PUMA) or were a generous gift from Dr. B. Vojtesek (anti-p53, clone DO-1). All primary antibodies were diluted in PBS containing 5% powdered milk; 0.1% Tween 20. Peroxidase conjugated rabbit anti-mouse immunoglobulin or porcine anti-rabbit immunoglobulin antisera (DAKO) were used as the secondary antibodies and visualised with ECL reagents (GE-Healthcare Life Sciences)."}, "[3]": {"system": "THP1 (human monocytic cell line)", "assay": "MTT cytotoxicity assay, leukemic cell line THP1", "details": "Homo sapiens, THP-1, 72 h, three days", "outline": "as §1"}, "[4]": {"system": "MV4;11 (acute myelocytic leukemia)", "assay": "MTT cytotoxicity assay, leukemic cell line MV4;11", "details": "Homo sapiens, MV4-11, 72 h, three days", "outline": "as §1"}, "[5]": {"system": "CEM (human lymphoblastoid leukaemia)", "assay": "MTT cytotoxicity assay, leukemic cell line CEM", "details": "Homo sapiens, 72 h, three days", "outline": "as §1"}, "[6]": {"system": "HUVECs (human umbilical vein endothelial cells)", "assay": "HUVEC proliferation assay (crystal violet)", "details": "Homo sapiens, HUVEC, 72 h, read-out: Inhibition of proliferation (EC50)", "outline": "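Passage-3 HUVECs in endothelial growth medium with 10% FCS; 1.5×10^3 cells cultured 24 h, then treated with compounds or left untreated for 72 h. Proliferation read out by crystal violet staining.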"}, "PARP-1": {"system": "PARP-1", "assay": "Immunoblotting of apoptotic markers in HCT116 cells: PARP-1", "details": "24 hours, FIG. 4", "procedure": "as §2"}, "[7]": {"system": "K562 (human chronic myelogenous leukaemia)", "assay": "MTT cytotoxicity assay, leukemic cell line K562", "details": "Homo sapiens, K562, 72 h, three days", "outline": "as §1"}}}
{"smiles": "CC(C)c1[nH]nc2c(NCc3ccc(-c4ccccn4)cc3)nc(NCC(O)CN)nc12", "note": "(stereo not shown) [Compound 45]", "values": [{"measurement": "caspase-3/7 activity in HCT116 cells", "setting": "[1]", "result": "potent dose-dependent activation of the caspases in nanomolar concentrations"}, {"measurement": "IC50", "setting": "HCT116 (colon carcinoma)", "result": 0.37, "unit": "µM"}, {"measurement": "IC50", "setting": "[2]", "result": 0.62, "unit": "µM"}, {"measurement": "expression of tumor suppressor protein p53 (immunoblot)", "setting": "p53", "result": "rapidly increased the expression"}, {"measurement": "IC50", "setting": "[3]", "result": 0.49, "unit": "µM"}, {"measurement": "IC50", "setting": "[4]", "result": 0.51, "unit": "µM"}, {"measurement": "IC50", "setting": "[5]", "result": 0.54, "unit": "µM"}, {"measurement": "EC50", "setting": "[6]", "result": 176, "unit": "nM"}, {"measurement": "PARP-1 cleavage (immunoblot)", "setting": "PARP-1", "result": "appearance of the caspase-3-cleaved PARP-1 fragment at 89 kDa"}, {"measurement": "IC50", "setting": "[7]", "result": 0.7, "unit": "µM"}]}
